In ChEMBL document CHEMBL1201862, “PubChem BioAssay data set” (2004):
The source made the active and inactive calls.

Experiments:
Tumor necrosis factor = Tumor necrosis factor (Homo sapiens, UniProt P01375); test: TNFa-triggered NF-kB activation inhibitors, SAR follow-up, cell-based, revised (AID 2337); format: functional
HEK293 = test: cells; details: Homo sapiens;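 also: cells exposed to compound for 14 hours overnight before viability readout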
INS1 = test: beta cell apoptosis inhibitors, cytokine rescue, dose response, luminescence, retest (AID 449756); format: functional, cell-based; details: Rattus norvegicus;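 also: cell death triggered by IL-1 beta plus TNF-alpha plus IFN-gamma mixture; protective hits raise ATP signal compared with cytokine alone wells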
[1] = target: Nucleotide-binding oligomerization domain-containing protein 1 (Homo sapiens, UniProt Q9Y239); test: NOD1 signaling inhibitors, SAR follow-up, revised (AID 2333); format: functional
[2] = target: Luciferin 4-monooxygenase (Photinus pyralis, UniProt P08659); test: firefly luciferase enzyme inhibitors, dose response, biochemical, luminescence (AID 1891)
Cytochrome P450 2D6 = Cytochrome P450 2D6 (Homo sapiens, UniProt P10635);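 also: CYP2D6 member of a cytochrome P450 panel assay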
Cytochrome P450 2C19 = Cytochrome P450 2C19 (Homo sapiens, UniProt P33261); test: Cytochrome panel assay with activity outcomes. Panel member name: p450-cyp2c19 Compounds with AC50 equal or less than 10 uM are considered active; format: functional; details: read-out: AC50
[3] = Luminescence Cell-Based Dose Confirmation HTS to Identify Inhibitors of Platelet Dense Granule Release. [Related pubchem assays: 1663 (Primary HTS), 1678 (Summary of Project)]; format: functional
Cytochrome P450 2C9 = Cytochrome P450 2C9 (Homo sapiens, UniProt P11712)
Sequence of Cytochrome P450 2C9 (P11712 whole entry): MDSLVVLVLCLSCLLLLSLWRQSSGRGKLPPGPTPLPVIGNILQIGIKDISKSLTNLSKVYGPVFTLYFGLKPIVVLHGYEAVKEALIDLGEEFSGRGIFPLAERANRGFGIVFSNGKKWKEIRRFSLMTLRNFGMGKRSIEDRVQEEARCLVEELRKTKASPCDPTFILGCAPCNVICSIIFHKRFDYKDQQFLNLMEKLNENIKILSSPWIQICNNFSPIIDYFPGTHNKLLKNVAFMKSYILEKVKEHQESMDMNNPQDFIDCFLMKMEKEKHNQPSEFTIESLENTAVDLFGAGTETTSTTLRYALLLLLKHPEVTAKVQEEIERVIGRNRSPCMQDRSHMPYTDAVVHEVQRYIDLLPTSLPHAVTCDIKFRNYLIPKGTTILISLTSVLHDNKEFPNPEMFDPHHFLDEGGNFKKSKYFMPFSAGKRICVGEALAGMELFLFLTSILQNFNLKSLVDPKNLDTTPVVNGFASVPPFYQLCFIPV

Sequence of Cytochrome P450 2D6 (P10635 whole entry): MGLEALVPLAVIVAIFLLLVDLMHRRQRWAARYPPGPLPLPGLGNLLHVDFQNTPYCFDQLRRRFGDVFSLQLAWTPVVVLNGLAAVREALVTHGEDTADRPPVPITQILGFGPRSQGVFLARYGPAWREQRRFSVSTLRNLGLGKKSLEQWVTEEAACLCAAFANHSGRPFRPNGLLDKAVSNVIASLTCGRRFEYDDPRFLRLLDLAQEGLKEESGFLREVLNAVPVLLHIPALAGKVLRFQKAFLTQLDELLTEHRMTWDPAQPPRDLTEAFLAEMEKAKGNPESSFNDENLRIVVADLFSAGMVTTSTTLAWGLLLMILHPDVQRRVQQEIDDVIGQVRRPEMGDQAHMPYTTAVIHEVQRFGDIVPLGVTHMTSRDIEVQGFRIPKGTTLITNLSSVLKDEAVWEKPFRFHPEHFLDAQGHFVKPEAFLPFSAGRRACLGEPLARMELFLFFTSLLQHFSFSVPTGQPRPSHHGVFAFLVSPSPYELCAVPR
Sequence of Luciferin 4-monooxygenase (P08659 whole entry): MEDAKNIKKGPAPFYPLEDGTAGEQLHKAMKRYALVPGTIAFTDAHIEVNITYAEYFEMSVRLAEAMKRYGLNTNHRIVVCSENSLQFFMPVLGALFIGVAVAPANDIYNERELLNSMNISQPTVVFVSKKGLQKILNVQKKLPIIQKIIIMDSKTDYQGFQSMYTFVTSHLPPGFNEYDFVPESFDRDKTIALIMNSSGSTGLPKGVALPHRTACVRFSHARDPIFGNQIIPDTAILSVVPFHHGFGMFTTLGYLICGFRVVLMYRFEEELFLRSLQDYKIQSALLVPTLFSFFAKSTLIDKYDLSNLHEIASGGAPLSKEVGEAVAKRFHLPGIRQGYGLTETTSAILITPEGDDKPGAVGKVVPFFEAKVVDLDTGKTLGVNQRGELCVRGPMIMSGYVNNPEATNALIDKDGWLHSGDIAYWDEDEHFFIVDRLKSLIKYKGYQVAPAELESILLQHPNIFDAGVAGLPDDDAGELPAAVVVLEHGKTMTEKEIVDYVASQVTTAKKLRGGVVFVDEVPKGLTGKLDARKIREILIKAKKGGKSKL
Sequence of Tumor necrosis factor (P01375 whole entry): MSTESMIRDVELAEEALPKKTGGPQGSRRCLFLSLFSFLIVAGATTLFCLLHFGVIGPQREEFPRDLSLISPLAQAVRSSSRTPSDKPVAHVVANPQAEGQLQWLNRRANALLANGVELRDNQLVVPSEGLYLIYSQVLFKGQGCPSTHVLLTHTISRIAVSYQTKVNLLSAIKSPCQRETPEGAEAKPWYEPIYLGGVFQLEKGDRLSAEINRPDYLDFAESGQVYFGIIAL
Sequence of Cytochrome P450 2C19 (P33261 whole entry): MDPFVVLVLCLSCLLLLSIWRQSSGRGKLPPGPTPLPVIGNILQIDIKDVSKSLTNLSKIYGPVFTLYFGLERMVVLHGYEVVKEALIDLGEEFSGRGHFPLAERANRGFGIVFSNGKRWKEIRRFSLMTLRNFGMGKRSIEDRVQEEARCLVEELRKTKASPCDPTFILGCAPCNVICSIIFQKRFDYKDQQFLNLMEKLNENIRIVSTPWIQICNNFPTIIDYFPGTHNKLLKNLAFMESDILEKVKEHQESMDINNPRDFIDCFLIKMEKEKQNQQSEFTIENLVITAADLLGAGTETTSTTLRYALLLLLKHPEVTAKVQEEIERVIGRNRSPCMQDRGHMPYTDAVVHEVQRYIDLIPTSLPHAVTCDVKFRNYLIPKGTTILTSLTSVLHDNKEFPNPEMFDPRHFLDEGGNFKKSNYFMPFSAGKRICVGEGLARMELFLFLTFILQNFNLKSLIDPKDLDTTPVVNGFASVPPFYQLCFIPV
Sequence of Nucleotide-binding oligomerization domain-containing protein 1 (Q9Y239 whole entry, the tested form may be a part): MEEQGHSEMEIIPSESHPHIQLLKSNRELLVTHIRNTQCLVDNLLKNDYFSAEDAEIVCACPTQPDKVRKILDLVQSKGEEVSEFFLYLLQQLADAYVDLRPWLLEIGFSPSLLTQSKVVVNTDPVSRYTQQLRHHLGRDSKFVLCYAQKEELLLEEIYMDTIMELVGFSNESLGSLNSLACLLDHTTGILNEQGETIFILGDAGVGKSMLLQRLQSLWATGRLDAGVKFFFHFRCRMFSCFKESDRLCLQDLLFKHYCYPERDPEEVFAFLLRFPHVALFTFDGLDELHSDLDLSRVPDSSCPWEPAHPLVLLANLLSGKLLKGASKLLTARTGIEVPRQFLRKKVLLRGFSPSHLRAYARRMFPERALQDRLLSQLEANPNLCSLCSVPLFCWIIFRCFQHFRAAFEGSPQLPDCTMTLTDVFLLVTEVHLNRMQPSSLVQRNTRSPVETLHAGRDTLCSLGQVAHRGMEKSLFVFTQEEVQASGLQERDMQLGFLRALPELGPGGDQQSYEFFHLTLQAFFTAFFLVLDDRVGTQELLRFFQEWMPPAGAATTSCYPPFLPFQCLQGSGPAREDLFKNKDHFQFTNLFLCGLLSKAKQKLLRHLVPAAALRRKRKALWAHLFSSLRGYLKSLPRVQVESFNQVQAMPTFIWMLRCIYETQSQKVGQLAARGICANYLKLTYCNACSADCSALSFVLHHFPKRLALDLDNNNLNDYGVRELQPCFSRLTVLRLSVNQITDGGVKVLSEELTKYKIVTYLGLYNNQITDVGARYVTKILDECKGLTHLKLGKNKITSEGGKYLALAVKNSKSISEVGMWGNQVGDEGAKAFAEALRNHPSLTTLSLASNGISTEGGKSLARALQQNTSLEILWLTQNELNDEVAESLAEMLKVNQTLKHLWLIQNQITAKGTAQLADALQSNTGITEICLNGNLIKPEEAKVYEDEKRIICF

Row | SMILES | IC50 (Tumor necrosis factor) | IC50 (HEK293) | AC50 (INS1) | IC50 [1] | EC50 [2] | AC50 (Cytochrome P450 2D6) | AC50 (Cytochrome P450 2C19) | EC50 [3] | AC50 (Cytochrome P450 2C9)
1 | CC(=O)c1ccc(N2CCN(S(=O)(=O)c3ccc4c(c3)CC(C)N4C(C)=O)CC2)cc1 (stereo not given) | 6.5 µM (active) | > 20 µM (inactive) | 6.79 µM (active) | 4.42 µM (active) | – | – | – | – | –
2 | Cc1ccc(NC(=O)c2cc(NC(=O)CCCC(=O)O)ccc2Cl)cc1Cl | – | – | – | – | > 112 µM (not active) | inconclusive | 0.891 µM (inconclusive) | > 112 µM (not active) | 15.8 µM (inconclusive)
3 | C#C[C@H](N)CCC(=O)O | – | – | – | – | – | inconclusive | – | – | –
